In ChEMBL document CHEMBL3885881, “DrugMatrix”:

Species on record: Rattus norvegicus
Test: DrugMatrix - Regimen: Daily Repeat
Format: toxicity, organism-based, Sprague-Dawley
Parameters: regimen Daily Repeat, gender Male, age 6-8 weeks
Settings: in vivo, po, route oral GAVAGE, […]; for BASOPHIL / EOSINOPHIL / ERYTHROCYTE COUNT / HEMATOCRIT / HEMOGLOBIN / LEUKOCYTE COUNT / LYMPHOCYTE / MEAN CORPUSCULAR HEMOGLOBIN / MEAN CORPUSCULAR HEMOGLOBIN CONCENTRATION / MEAN CORPUSCULAR VOLUME / MONOCYTE / NEUTROPHIL / PLATELET COUNT: tissue Blood; for ALANINE AMINOTRANSFERASE / ALBUMIN / ALKALINE PHOSPHATASE / ASPARTATE AMINOTRANSFERASE / BLOOD UREA NITROGEN / CARBON DIOXIDE / CHLORIDE / CHOLESTEROL / CREATINE PHOSPHOKINASE / CREATININE / GLUCOSE / LACTATE DEHYDROGENASE / LIPASE / PHOSPHORUS / POTASSIUM / SODIUM / TOTAL BILIRUBIN / TOTAL PROTEIN / URIC ACID: tissue Plasma
[1] = 0 mg/kg, 72 h, dose level Control, time 3 day
[2] = 0 mg/kg, 120 h, dose level Control, time 5 day
[3] = 0 mg/kg, dose level Control, time 14 day
[4] = 24 mg/kg, 72 h, dose level High, time 3 day
[5] = 24 mg/kg, 120 h, dose level High, time 5 day
[6] = 24 mg/kg, dose level High, time 14 day

c1ccoc1 [FURAN]
BASOPHIL [1]: 0.55% | EOSINOPHIL [1]: 0.55% | ERYTHROCYTE COUNT [1]: 6.6 x10E6/uL | HEMATOCRIT [1]: 43.77% | HEMOGLOBIN [1]: 14.12 G/DL | LEUKOCYTE COUNT [1]: 10.15 x10E3/uL | LYMPHOCYTE [1]: 87.95% | MEAN CORPUSCULAR HEMOGLOBIN [1]: 21.4 pg | MEAN CORPUSCULAR HEMOGLOBIN CONCENTRATION [1]: 32.23 G/DL | MEAN CORPUSCULAR VOLUME [1]: 66.33 fL | MONOCYTE [1]: 1.7% | NEUTROPHIL [1]: 8.05% | PLATELET COUNT [1]: 1122 x10E3/uL | ALANINE AMINOTRANSFERASE [1]: 49.33 u/L | ALBUMIN [1]: 4.08 G/DL | ALKALINE PHOSPHATASE [1]: 565 u/L | ASPARTATE AMINOTRANSFERASE [1]: 81.5 u/L | BLOOD UREA NITROGEN [1]: 14.33 mg/dL | CARBON DIOXIDE [1]: 27.17 mmol/L | CHLORIDE [1]: 106.83 MEQ/L | CHOLESTEROL [1]: 74.83 mg/dL | CREATINE PHOSPHOKINASE [1]: 342.33 u/L | CREATININE [1]: 0.4 mg/dL | GLUCOSE [1]: 169.5 mg/dL | LACTATE DEHYDROGENASE [1]: 165.17 u/L | LIPASE [1]: 13.67 u/L | PHOSPHORUS [1]: 12.42 mg/dL | POTASSIUM [1]: 6.7 MEQ/L | SODIUM [1]: 151.17 MEQ/L | TOTAL BILIRUBIN [1]: 0.4 mg/dL | TOTAL PROTEIN [1]: 6.13 G/DL | URIC ACID [1]: 1.62 mg/dL | BASOPHIL [2]: 0.87% | EOSINOPHIL [2]: 0.53% | ERYTHROCYTE COUNT [2]: 6.86 x10E6/uL | HEMATOCRIT [2]: 45.15% | HEMOGLOBIN [2]: 14.42 G/DL | LEUKOCYTE COUNT [2]: 12.67 x10E3/uL | LYMPHOCYTE [2]: 87.1% | MEAN CORPUSCULAR HEMOGLOBIN [2]: 21.05 pg | MEAN CORPUSCULAR HEMOGLOBIN CONCENTRATION [2]: 32 G/DL | MEAN CORPUSCULAR VOLUME [2]: 65.75 fL | MONOCYTE [2]: 1.9% | NEUTROPHIL [2]: 8.25% | PLATELET COUNT [2]: 1111 x10E3/uL | ALANINE AMINOTRANSFERASE [2]: 46.17 u/L | ALBUMIN [2]: 4.15 G/DL | ALKALINE PHOSPHATASE [2]: 447.17 u/L | ASPARTATE AMINOTRANSFERASE [2]: 65.67 u/L | BLOOD UREA NITROGEN [2]: 13.17 mg/dL | CARBON DIOXIDE [2]: 29 mmol/L | CHLORIDE [2]: 104.5 MEQ/L | CHOLESTEROL [2]: 72 mg/dL | CREATINE PHOSPHOKINASE [2]: 368.5 u/L | CREATININE [2]: 0.3 mg/dL | GLUCOSE [2]: 162.83 mg/dL | LACTATE DEHYDROGENASE [2]: 99.33 u/L | LIPASE [2]: 12.67 u/L | PHOSPHORUS [2]: 12.65 mg/dL | POTASSIUM [2]: 6.52 MEQ/L | SODIUM [2]: 148.67 MEQ/L | TOTAL BILIRUBIN [2]: 0.38 mg/dL | TOTAL PROTEIN [2]: 6.15 G/DL | URIC ACID [2]: 1.9 mg/dL | BASOPHIL [3]: 0.58% | EOSINOPHIL [3]: 0.45% | ERYTHROCYTE COUNT [3]: 7.51 x10E6/uL | HEMATOCRIT [3]: 46.87% | HEMOGLOBIN [3]: 15.2 G/DL | LEUKOCYTE COUNT [3]: 14.2 x10E3/uL | LYMPHOCYTE [3]: 80.78% | MEAN CORPUSCULAR HEMOGLOBIN [3]: 20.25 pg | MEAN CORPUSCULAR HEMOGLOBIN CONCENTRATION [3]: 32.42 G/DL | MEAN CORPUSCULAR VOLUME [3]: 62.45 fL | MONOCYTE [3]: 1.95% | NEUTROPHIL [3]: 13.97% | PLATELET COUNT [3]: 1115.17 x10E3/uL | ALANINE AMINOTRANSFERASE [3]: 32.5 u/L | ALBUMIN [3]: 4.22 G/DL | ALKALINE PHOSPHATASE [3]: 349.5 u/L | ASPARTATE AMINOTRANSFERASE [3]: 59.67 u/L | BLOOD UREA NITROGEN [3]: 14.83 mg/dL | CARBON DIOXIDE [3]: 30.33 mmol/L | CHLORIDE [3]: 102.17 MEQ/L | CHOLESTEROL [3]: 76 mg/dL | CREATINE PHOSPHOKINASE [3]: 163.17 u/L | CREATININE [3]: 0.37 mg/dL | GLUCOSE [3]: 157.33 mg/dL | LACTATE DEHYDROGENASE [3]: 93 u/L | LIPASE [3]: 10.4 u/L | PHOSPHORUS [3]: 11.93 mg/dL | POTASSIUM [3]: 6.55 MEQ/L | SODIUM [3]: 147.5 MEQ/L | TOTAL BILIRUBIN [3]: 0.4 mg/dL | TOTAL PROTEIN [3]: 6.45 G/DL | URIC ACID [3]: 0.7 mg/dL | BASOPHIL [4]: 0.77% | EOSINOPHIL [4]: 0.73% | ERYTHROCYTE COUNT [4]: 7.35 x10E6/uL | HEMATOCRIT [4]: 48.6% | HEMOGLOBIN [4]: 15.9 G/DL | LEUKOCYTE COUNT [4]: 11.15 x10E3/uL | LYMPHOCYTE [4]: 82.1% | MEAN CORPUSCULAR HEMOGLOBIN [4]: 21.57 pg | MEAN CORPUSCULAR HEMOGLOBIN CONCENTRATION [4]: 32.67 G/DL | MEAN CORPUSCULAR VOLUME [4]: 66.1 fL | MONOCYTE [4]: 3.27% | NEUTROPHIL [4]: 11.37% | PLATELET COUNT [4]: 1059 x10E3/uL | ALANINE AMINOTRANSFERASE [4]: 358 u/L | ALBUMIN [4]: 3.77 G/DL | ALKALINE PHOSPHATASE [4]: 771.67 u/L | ASPARTATE AMINOTRANSFERASE [4]: 316 u/L | BLOOD UREA NITROGEN [4]: 12.33 mg/dL | CARBON DIOXIDE [4]: 25 mmol/L | CHLORIDE [4]: 105.67 MEQ/L | CHOLESTEROL [4]: 87.67 mg/dL | CREATINE PHOSPHOKINASE [4]: 333.33 u/L | CREATININE [4]: 0.57 mg/dL | GLUCOSE [4]: 150.67 mg/dL | LACTATE DEHYDROGENASE [4]: 707 u/L | LIPASE [4]: 11.67 u/L | PHOSPHORUS [4]: 13.97 mg/dL | POTASSIUM [4]: 6.6 MEQ/L | SODIUM [4]: 149.33 MEQ/L | TOTAL BILIRUBIN [4]: 0.93 mg/dL | TOTAL PROTEIN [4]: 5.4 G/DL | URIC ACID [4]: 2.27 mg/dL | BASOPHIL [5]: 0.57% | EOSINOPHIL [5]: 0.6% | ERYTHROCYTE COUNT [5]: 7.68 x10E6/uL | HEMATOCRIT [5]: 50.57% | HEMOGLOBIN [5]: 16.23 G/DL | LEUKOCYTE COUNT [5]: 17.47 x10E3/uL | LYMPHOCYTE [5]: 82.63% | MEAN CORPUSCULAR HEMOGLOBIN [5]: 21.1 pg | MEAN CORPUSCULAR HEMOGLOBIN CONCENTRATION [5]: 32.1 G/DL | MEAN CORPUSCULAR VOLUME [5]: 65.87 fL | MONOCYTE [5]: 2.43% | NEUTROPHIL [5]: 12.47% | PLATELET COUNT [5]: 1240.33 x10E3/uL | ALANINE AMINOTRANSFERASE [5]: 114.33 u/L | ALBUMIN [5]: 3.83 G/DL | ALKALINE PHOSPHATASE [5]: 986 u/L | ASPARTATE AMINOTRANSFERASE [5]: 240.67 u/L | BLOOD UREA NITROGEN [5]: 12.33 mg/dL | CARBON DIOXIDE [5]: 30.67 mmol/L | CHLORIDE [5]: 101.67 MEQ/L | CHOLESTEROL [5]: 93.33 mg/dL | CREATINE PHOSPHOKINASE [5]: 798.67 u/L | CREATININE [5]: 0.37 mg/dL | GLUCOSE [5]: 143 mg/dL | LACTATE DEHYDROGENASE [5]: 233.67 u/L | LIPASE [5]: 14.67 u/L | PHOSPHORUS [5]: 12.43 mg/dL | POTASSIUM [5]: 7.1 MEQ/L | SODIUM [5]: 148.33 MEQ/L | TOTAL BILIRUBIN [5]: 0.87 mg/dL | TOTAL PROTEIN [5]: 5.63 G/DL | URIC ACID [5]: 2.27 mg/dL | BASOPHIL [6]: 0.54% | EOSINOPHIL [6]: 0.64% | ERYTHROCYTE COUNT [6]: 8.42 x10E6/uL | HEMATOCRIT [6]: 50.4% | HEMOGLOBIN [6]: 16.6 G/DL | LEUKOCYTE COUNT [6]: 14.86 x10E3/uL | LYMPHOCYTE [6]: 74.12% | MEAN CORPUSCULAR HEMOGLOBIN [6]: 19.76 pg | MEAN CORPUSCULAR HEMOGLOBIN CONCENTRATION [6]: 32.96 G/DL | MEAN CORPUSCULAR VOLUME [6]: 59.9 fL | MONOCYTE [6]: 2.54% | NEUTROPHIL [6]: 20.58% | PLATELET COUNT [6]: 1423.6 x10E3/uL | ALANINE AMINOTRANSFERASE [6]: 56 u/L | ALBUMIN [6]: 4.28 G/DL | ALKALINE PHOSPHATASE [6]: 706.2 u/L | ASPARTATE AMINOTRANSFERASE [6]: 86.6 u/L | BLOOD UREA NITROGEN [6]: 13.2 mg/dL | CARBON DIOXIDE [6]: 27 mmol/L | CHLORIDE [6]: 104 MEQ/L | CHOLESTEROL [6]: 106.8 mg/dL | CREATINE PHOSPHOKINASE [6]: 224.2 u/L | CREATININE [6]: 0.42 mg/dL | GLUCOSE [6]: 136.6 mg/dL | LACTATE DEHYDROGENASE [6]: 113.8 u/L | LIPASE [6]: 17.2 u/L | PHOSPHORUS [6]: 10.26 mg/dL | POTASSIUM [6]: 5.84 MEQ/L | SODIUM [6]: 148.4 MEQ/L | TOTAL BILIRUBIN [6]: 0.72 mg/dL | TOTAL PROTEIN [6]: 6.34 G/DL | URIC ACID [6]: 1.26 mg/dL
